Measured values: ChEMBL document CHEMBL1139608, “Non-hydroxamate 5-phenylpyrimidine-2,4,6-trione derivatives as selective inhibitors of tumor necrosis factor-alpha converting enzyme” (Bioorg Med Chem Lett, 2005)
pIC50, pKi: −log10 of the molar value.

Experiments:
[1] = target: Matrix metalloproteinase-9 (Homo sapiens, UniProt P14780); assay: In vitro binding affinity against matrix metalloprotease 9
Collagenase 3 = Collagenase 3 (Homo sapiens, UniProt P45452); assay: In vitro binding affinity against matrix metalloprotease 13
[2] = target: Disintegrin and metalloproteinase domain-containing protein 17 (Homo sapiens, UniProt P78536); assay: In vitro inhibitory concentration against human tumor necrosis factor-alpha converting enzyme
Interstitial collagenase = target: T1, Interstitial collagenase (Homo sapiens, UniProt P03956); assay: In vitro binding affinity against matrix metalloprotease 1
T1 sequence (P03956 whole entry): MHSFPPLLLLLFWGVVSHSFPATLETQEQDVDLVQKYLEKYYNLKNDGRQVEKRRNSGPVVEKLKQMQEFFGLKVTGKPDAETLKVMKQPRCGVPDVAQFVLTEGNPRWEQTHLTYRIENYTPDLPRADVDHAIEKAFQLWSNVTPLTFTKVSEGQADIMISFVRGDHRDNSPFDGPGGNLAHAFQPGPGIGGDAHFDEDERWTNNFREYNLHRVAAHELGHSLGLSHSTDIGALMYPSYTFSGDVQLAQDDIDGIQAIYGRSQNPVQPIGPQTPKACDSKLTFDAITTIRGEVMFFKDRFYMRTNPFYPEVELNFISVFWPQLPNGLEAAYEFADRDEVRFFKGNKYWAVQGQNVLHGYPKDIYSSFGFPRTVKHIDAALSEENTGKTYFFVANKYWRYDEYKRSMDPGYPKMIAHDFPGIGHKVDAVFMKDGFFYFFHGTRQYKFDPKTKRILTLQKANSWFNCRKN

[3] = In vitro percent inhibition against aggrecanase at the concentration of 1 uM
[4] = target: 72 kDa type IV collagenase (Homo sapiens, UniProt P08253); assay: In vitro binding affinity against matrix metalloprotease 2
Sequence of 72 kDa type IV collagenase (P08253 whole entry): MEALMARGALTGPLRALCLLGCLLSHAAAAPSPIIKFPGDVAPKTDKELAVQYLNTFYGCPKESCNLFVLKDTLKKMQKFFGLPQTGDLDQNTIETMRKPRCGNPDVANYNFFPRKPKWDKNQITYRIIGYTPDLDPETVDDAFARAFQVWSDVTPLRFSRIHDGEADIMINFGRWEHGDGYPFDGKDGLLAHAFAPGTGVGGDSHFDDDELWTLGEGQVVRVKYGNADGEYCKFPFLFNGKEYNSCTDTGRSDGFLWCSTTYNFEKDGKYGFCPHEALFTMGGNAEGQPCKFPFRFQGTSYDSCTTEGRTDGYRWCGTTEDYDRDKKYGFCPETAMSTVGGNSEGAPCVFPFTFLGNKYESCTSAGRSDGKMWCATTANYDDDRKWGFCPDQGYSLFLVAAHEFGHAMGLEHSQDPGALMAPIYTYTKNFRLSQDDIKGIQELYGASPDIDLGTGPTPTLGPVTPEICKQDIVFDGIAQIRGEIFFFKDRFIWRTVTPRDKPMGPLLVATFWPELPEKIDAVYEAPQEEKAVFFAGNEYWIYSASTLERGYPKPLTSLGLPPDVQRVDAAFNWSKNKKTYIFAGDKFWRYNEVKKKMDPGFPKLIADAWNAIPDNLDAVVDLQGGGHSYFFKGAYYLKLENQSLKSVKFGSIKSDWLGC

Sequence of Matrix metalloproteinase-9 (P14780 whole entry): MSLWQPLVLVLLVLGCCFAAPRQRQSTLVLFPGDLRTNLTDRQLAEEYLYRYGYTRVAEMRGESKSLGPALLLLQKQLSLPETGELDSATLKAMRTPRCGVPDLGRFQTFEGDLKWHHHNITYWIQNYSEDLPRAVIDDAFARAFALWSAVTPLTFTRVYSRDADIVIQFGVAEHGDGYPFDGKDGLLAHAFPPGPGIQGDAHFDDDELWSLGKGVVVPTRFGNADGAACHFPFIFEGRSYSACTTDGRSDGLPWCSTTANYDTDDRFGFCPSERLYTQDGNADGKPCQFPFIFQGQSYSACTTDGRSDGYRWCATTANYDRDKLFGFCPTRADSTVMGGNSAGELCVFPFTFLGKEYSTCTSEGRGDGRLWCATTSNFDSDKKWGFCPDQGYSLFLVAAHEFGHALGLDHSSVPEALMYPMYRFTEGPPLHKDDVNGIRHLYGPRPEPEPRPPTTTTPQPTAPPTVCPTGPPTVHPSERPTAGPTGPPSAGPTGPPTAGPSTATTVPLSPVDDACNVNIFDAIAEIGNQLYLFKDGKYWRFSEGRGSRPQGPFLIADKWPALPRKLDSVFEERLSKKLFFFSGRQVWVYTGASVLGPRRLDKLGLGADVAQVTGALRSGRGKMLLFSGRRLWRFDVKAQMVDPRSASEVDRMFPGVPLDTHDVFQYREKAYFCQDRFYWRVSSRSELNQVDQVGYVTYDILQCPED
Sequence of Disintegrin and metalloproteinase domain-containing protein 17 (P78536 whole entry, the tested form may be a part): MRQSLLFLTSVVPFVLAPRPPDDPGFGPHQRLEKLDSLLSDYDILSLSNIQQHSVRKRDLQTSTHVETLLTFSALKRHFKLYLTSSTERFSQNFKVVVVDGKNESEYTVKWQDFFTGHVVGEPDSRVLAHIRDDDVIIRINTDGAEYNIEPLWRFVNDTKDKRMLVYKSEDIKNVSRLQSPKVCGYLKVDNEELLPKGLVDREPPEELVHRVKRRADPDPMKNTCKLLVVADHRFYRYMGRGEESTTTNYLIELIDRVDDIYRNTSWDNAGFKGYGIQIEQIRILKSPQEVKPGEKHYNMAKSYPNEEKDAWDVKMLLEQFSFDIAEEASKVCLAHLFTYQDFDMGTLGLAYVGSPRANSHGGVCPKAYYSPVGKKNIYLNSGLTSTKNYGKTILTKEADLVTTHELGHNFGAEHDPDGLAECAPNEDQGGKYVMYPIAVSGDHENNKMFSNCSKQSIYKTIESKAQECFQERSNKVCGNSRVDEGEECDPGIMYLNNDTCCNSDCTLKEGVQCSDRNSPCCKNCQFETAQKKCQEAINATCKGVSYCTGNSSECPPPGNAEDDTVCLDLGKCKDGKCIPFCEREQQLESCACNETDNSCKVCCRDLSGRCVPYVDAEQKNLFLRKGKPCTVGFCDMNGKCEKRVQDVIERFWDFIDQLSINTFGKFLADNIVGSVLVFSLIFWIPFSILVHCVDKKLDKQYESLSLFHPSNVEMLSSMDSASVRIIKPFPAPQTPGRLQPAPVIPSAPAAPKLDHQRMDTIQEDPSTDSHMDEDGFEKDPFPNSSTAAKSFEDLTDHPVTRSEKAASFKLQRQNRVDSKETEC

Row | SMILES | pKi [1] | pKi (Collagenase 3) | pIC50 [2] | pKi (Interstitial collagenase) | inhibition [3] [%] | pKi [4]
1 | Cc1cc(COc2ccc(C3(N4CCN(CC(C)(C)C)CC4)C(=O)NC(=O)NC3=O)cc2)c2ccccc2n1 | < 5.67 | < 5.30 | 6.80 | < 5.31 | 10 | < 5.48
2 | Cc1cc(COc2ccc(C3(C)C(=O)NC(=O)NC3=O)cc2)c2ccccc2n1 | < 5.67 | 5.30 | 5.99 | < 5.31 | 0 | < 5.48
3 | Cc1cc(COc2ccc(C3(N4CCN(CCc5ccccc5)CC4)C(=O)NC(=O)NC3=O)cc2)c2ccccc2n1 | 7.07 | 7.02 | 7.08 | < 5.31 | 38 | 7.08
4 | Cc1cc(COc2ccc(C3(N4CCN(S(C)(=O)=O)CC4)C(=O)NC(=O)NC3=O)cc2)c2ccccc2n1 | < 5.67 | < 5.30 | 6.56 | < 5.31 | 5 | < 5.48
5 | Cc1cc(COc2ccc(C3(N4CCOCC4)C(=O)NC(=O)NC3=O)cc2)c2ccccc2n1 | < 5.67 | < 5.30 | 6.27 | < 5.31 | 1 | < 5.48
6 | Cc1cc(COc2ccc(C3(N4CCNCC4)C(=O)NC(=O)NC3=O)cc2)c2ccccc2n1 | < 5.67 | < 5.30 | 5.96 | < 5.31 | 0 | < 5.48
7 | Cc1cc(COc2ccc(C3(N4CCN(CCCc5ccccc5)CC4)C(=O)NC(=O)NC3=O)cc2)c2ccccc2n1 | 5.69 | 5.30 | 6.96 | < 5.31 | 12 | 5.51
8 | Cc1cc(COc2ccc(C3(N4CCN(c5ccc([N+](=O)[O-])cc5)CC4)C(=O)NC(=O)NC3=O)cc2)c2ccccc2n1 | 6.86 | 6.45 | 5.55 | < 5.36 | 0 | 6.94
9 | Cc1cc(COc2ccc3cc(C4(C)C(=O)NC(=O)NC4=O)ccc3c2)c2ccccc2n1 | – | – | < 4.00 | – | 1 | 5.48
10 | Cc1cc(COc2ccc(C3(N4CCN(C(=O)C(C)(C)C)CC4)C(=O)NC(=O)NC3=O)cc2)c2ccccc2n1 | < 5.67 | < 5.30 | 5.27 | < 5.31 | 0 | < 5.48
11 | Cc1cc(COc2ccc(C3(N4CCN(C(=O)OC(C)(C)C)CC4)C(=O)NC(=O)NC3=O)cc2)c2ccccc2n1 | < 5.67 | < 5.30 | 6.80 | < 5.31 | 10 | < 5.48
12 | CCCCCCN1CCN(C2(c3ccc(OCc4cc(C)nc5ccccc45)cc3)C(=O)NC(=O)NC2=O)CC1 | < 5.67 | < 5.30 | 7.09 | < 5.31 | 12 | < 5.48
13 | Cc1cc(COc2ccc(C3(N4CCN(Cc5ccccc5)CC4)C(=O)NC(=O)NC3=O)cc2)c2ccccc2n1 | < 5.67 | < 5.30 | 6.71 | < 5.31 | 5 | < 5.48
14 | CC1(c2ccc(Oc3ccccc3)cc2)C(=O)NC(=O)NC1=O | 7.28 | 7.19 | – | – | – | 7.10
15 | CC1(c2ccc(OCc3ccccc3)cc2)C(=O)NC(=O)NC1=O | < 5.67 | 5.40 | < 4.00 | < 5.31 | 0 | 6.22
16 | Cc1cc(COc2ccc(C3(N4CCN(C(C)C)CC4)C(=O)NC(=O)NC3=O)cc2)c2ccccc2n1 | < 5.67 | < 5.30 | 7.02 | < 5.31 | 0 | < 5.48
17 | Cc1cc(COc2ccc(C3(N4CCCCC4)C(=O)NC(=O)NC3=O)cc2)c2ccccc2n1 | < 5.67 | < 5.30 | 6.07 | < 5.31 | 0 | < 5.48
18 | Cc1cc(COc2ccc(C3(N4CCN(C)CC4)C(=O)NC(=O)NC3=O)cc2)c2ccccc2n1 | < 5.67 | < 5.30 | 7.04 | < 5.31 | 37 | < 5.48
19 | CC1(c2ccc(O)cc2)C(=O)NC(=O)NC1=O | 6.07 | < 5.30 | < 4.00 | < 5.31 | 0 | 5.60
20 | CC(=O)c1ccc(N2CCN(C3(c4ccc(OCc5cc(C)nc6ccccc56)cc4)C(=O)NC(=O)NC3=O)CC2)cc1 | < 5.67 | < 5.30 | 6.21 | < 5.31 | 8 | < 5.48
